From US20160257927A1, “THREE-DIMENSIONAL CELL CULTURE USING NANOFIBER SLURRIES AND NANO-STRUCTURED SUBSTRATES” (UCL BUSINESS PLC, priority 2015, published 2016)

Tested on: Lung cancer A549 cells
Experiment: Chemosensitivity to anticancer drugs in 2D TCP and 3D scaffold (MTS CellTiter 96 cell viability)
Format: cell-based, human
Conditions: 48 hrs treatment; 2D TCP vs 3D CA/Rayon, 1:9 scaffold; 25000 cells seeded
Method: FIG. 18. Chemosensitivity of cancer cell lines in response to 48 hrs treatment with anticancer drugs when cultured in 2D Tissue Culture Plates (TCP) and 3D CA/Rayon, 1:9 scaffold.
25000 cells of tested cell lines were seeded in 2D TCP and 3D scaffold. Cells were treated with anticancer drugs for 48 hrs and then cell viability was measured using MTS CellTiter 96® Aqueous One Solution assay (Promega).

| SMILES | chemosensitivity (cell viability) of A549 cells |
| --- | --- |
| O=c1[nH]cc(F)c(=O)[nH]1 [5-fluorouracil] | more sensitive to 5-fluorouracil and doxorubicin in 2D TCP than in 3D scaffolds |
| COc1cccc2c1C(=O)c1c(O)c3c(c(O)c1C2=O)C[C@@](O)(C(=O)CO)C[C@@H]3O[C@H]1C[C@H](N)[C@H](O)[C@H](C)O1 [doxorubicin] | more sensitive to 5-fluorouracil and doxorubicin in 2D TCP than in 3D scaffolds |
